Test results: US9376449B2, “Indole carboxamide derivative” (Astellas Pharma Inc., priority 2012, dated 2016)

How the values were obtained:
human MT2 receptor = molecular target: T1, human MT2 receptor (Homo sapiens, UniProt P49286); assay: Activation of human MT2 receptor in receptor-expressing HEK293 cells (intracellular Ca2+, FLIPR); assay type: cell-based; details: for Emax: HEK293, maximum reaction by ramelteon taken as 100%, solvent only 0%; for EC50: HEK293 cells stably expressing human MT2 and Gq/i chimeric G-protein, intracellular Ca2+ by FLIPR
T1 sequence (P49286 1-362): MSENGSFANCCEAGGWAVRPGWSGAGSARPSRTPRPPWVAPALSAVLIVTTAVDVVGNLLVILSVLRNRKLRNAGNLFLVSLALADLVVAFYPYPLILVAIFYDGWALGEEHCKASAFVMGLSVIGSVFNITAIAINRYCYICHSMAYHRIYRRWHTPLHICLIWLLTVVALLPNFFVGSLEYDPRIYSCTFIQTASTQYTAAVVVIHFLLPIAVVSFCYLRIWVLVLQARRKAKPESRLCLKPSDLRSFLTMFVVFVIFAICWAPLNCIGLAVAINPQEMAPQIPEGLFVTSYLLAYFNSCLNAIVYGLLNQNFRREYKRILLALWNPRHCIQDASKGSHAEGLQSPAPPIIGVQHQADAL
Description: (§1) (1) Isolation of Human MT1 and MT2 Receptor and Construction of Expression Vector
(§2) A human MT1 receptor gene (GenBank Accession No.: NM_005958.3) and a human MT2 receptor gene (GenBank Accession No.: NM_005959.3) were each introduced into an expression vector pCDNA3.1/Zeo (Invitrogen, Inc.).
(§3) (2) Construction of Cells Stably Expressing Human MT1 and Human MT2 Receptor
(§4) The introduction was carried out according to the attached instructions, using a Lipofectoamine (registered trademark) 2000 Reagent (Invitrogen, Inc.). Zeocin and hygromycin were used as a resistant drug, and the cell was incubated for 15 days at 0.02 mg/mL and 0.05 mg/mL, respectively, thereby acquiring drug-resistant clones.
(§5) (3) Measurement of Intracellular Ca^2+ Concentration by FLIPR (Registered Trademark)
(§6) The respective stably expressing cells were dispensed into 96-well poly-D-lysine-coated plates (Falcon Co.) to 40,000 cells/well the day before the experiment, and incubated overnight in a DMEM (Invitrogen, Inc.) medium including 10% FBS at 37° C. and 5% CO2. The medium was replaced with a loading buffer (washing solution (Hank's balanced salt solution (HBSS), 20 mM HEPES-NaOH, 2.5 mM probenecid) including Fluo-4AM (Dojindo Co.) at 4 μM), and incubated for 1 hour at 37° C. and 5% CO2. Thereafter, the cells were washed with a plate washer (ELx405, BIO-TEK Instrument, Inc.) set with the washing solution, and set in an intracellular Ca^2+ concentration measuring systems (FLIPR (registered trademark), Molecular Device Co.). The test compound was dissolved in the washing solution in advance, diluted to a final concentration of −12 to −5 log M, set in a FLIPR (registered trademark) device together with the cells, and added to the cells in the device. At this time, a change in the intracellular Ca^2+ concentrations was measured.
(§7) Ex represents Example No. of the test compound.

3T3 = assay: In vitro 3T3 NRU phototoxicity test; assay type: cell-based
Description: Test Example 6 Drug Pharmacokinetic Test, Safety Pharmacology Test, and Toxicity Test
Using some Example compounds of the present invention, a drug Pharmacokinetic test, a safety pharmacology test, and a toxicity test were carried out.
(iii) For the toxicity test, for example, an in vitro phototoxicity test was carried out. The evaluation of the in vitro phototoxicity test was carried out in accordance with Guidance for industry photosafety testing, Center for Drug Evaluation and Research Food and Drug Administration, 2003, which is a guideline of FDA (U.S. Food and Drug Administration), and Note for guidance on photosafety testing (CPMP/SWP/398/01, 2002) which is a guideline of EMA (European Medicines Agency), and the method described in OECD guideline for testing of chemicals 432: In vitro 3T3 NRU phototoxicity test, 2004, which is a test method described in the report of OECD.

[1] = CNS penetration: CSF to plasma unbound concentration ratio in rat; assay type: in vivo; details: CSF and plasma (unbound), iv, 15 minutes after intravenous administration, CCSF/Cplasma,u, read-out: Kp,uu,CSF,iv15min
Description: Test Example 4 Test for Evaluating CNS Penetration
(1) Measurement of Unbound Fraction (fp) in Rat Plasma
A test compound (100 μg/mL, 50% acetonitrile solution) at 1% (v/v) with respect to the amount of the plasma was added to rat plasma, and dispensed to a sample for a supernatant and a sample for the plasma. The sample for a supernatant was ultracentrifuged at 436,000×g and 37° C. for 140 minutes, and the sample for the plasma was incubated at 37° C. for 140 minutes.
After 140 minutes, the sample for a supernatant after the ultracentrifugation and the sample for the plasma were taken, and mixed with the blank plasma or the blank supernatant, respectively. Acetonitrile including an internal standard material was added to each of the samples, and after the centrifugation at 2150×g and 4° C. for 10 minutes the supernatant was injected into LC-MS/MS.
The unbound fraction in the plasma was calculated by the following equation.
(wherein fp: an unbound fraction in the plasma and D: a dilution rate of the plasma. fu,app=peak area ratio of supernatant sample/peak area ratio of the plasma sample, and peak area ratio=peak area of test compound/peak area of internal standard material).
(2) The CSF to Plasma Unbound Concentration Ratio in Rat
A 50% acetonitrile solution and an acetonitrile including internal standard material was added to the collected plasma or CSF. After centrifugation at 4° C. and 2150×g for 10 minutes, the supernatant was injected into LC-MS/MS, and the total concentration of the test compound in the plasma (Cplasma,t) and the concentration of the test compound in CSF (CCSF) were obtained. The unbound concentration in the plasma (Cplasma,u) of the test compound and the CSF-to plasma unbound concentration ratio (Kp,uu,CSF) of the test compound was calculated by the following equation.
as §7

urethral pressure = assay: Effect of test compound on urethral pressure in anesthetized rats; assay type: in vivo, rat; details: 0.1 mg/kg intravenously, urethane-anesthetized SD female rats
Excerpt: Test Example 3 Test to Evaluate Effect of Test Compound on Urethral Pressure
It has been reported that an increase in the urethra pressure is useful for the treatment of urinary incontinence, particularly stress urinary incontinence (for example, Drugs, 64, 14, 1503-1516 (2004)). In order to confirm whether the compound of the present invention increases the urethra pressure and thus is useful for the treatment of urinary incontinence, particularly stress urinary incontinence, the following tests were carried out.
SD female rats were anesthetized with urethane and subjected to laparotomy. Then, the bladder apex was incised and a catheter was inserted from the bladder apex. Further, the catheter tip was ligated and fixed to be located in the proximal urethra portion. The catheter was connected to a pressure transducer and an infusion pump. Further, a catheter for administrating the compound was fitted into the femoral vein. Physiological saline was continuously infused into the urethra and the perfusion pressure in the urethra was measured. After the urethral pressure was stabilized, the test compound that had been dissolved in physiological saline, or physiological saline including 5% dimethylacetamide and 0.5% Cremophor was administered intravenously at 0.1 mg/kg, and a change in urethral pressures was measured.
Further, the results of administering an active metabolite of midodrine (ST-1059: purchased from CHEMIZON) (J. Urology, 118, 980-982 (1977)) which is an α1 adrenoceptor agonist and has an effect on stress urinary incontinence in rat doses (0.01 mg/kg) presumed to correspond to the clinical doses are referenced and shown in the Tables below. The increment value in the urethra pressures of ramelteon and the Example compounds of the present invention at the time of administration are shown in Table 4. Ex represents Example No. of the test compound.

human MT1 receptor = human MT1 receptor (Homo sapiens, UniProt P48039); assay: Activation of human MT1 receptor in receptor-expressing HEK293 cells (intracellular Ca2+, FLIPR); assay type: cell-based; details: for Emax: HEK293, maximum reaction by ramelteon taken as 100%, solvent only 0%, read-out: MT1 Emax (%); for EC50: HEK293 cells stably expressing human MT1 and Gq/i chimeric G-protein, intracellular Ca2+ by FLIPR
human MT1 receptor, sequence (P48039 whole entry): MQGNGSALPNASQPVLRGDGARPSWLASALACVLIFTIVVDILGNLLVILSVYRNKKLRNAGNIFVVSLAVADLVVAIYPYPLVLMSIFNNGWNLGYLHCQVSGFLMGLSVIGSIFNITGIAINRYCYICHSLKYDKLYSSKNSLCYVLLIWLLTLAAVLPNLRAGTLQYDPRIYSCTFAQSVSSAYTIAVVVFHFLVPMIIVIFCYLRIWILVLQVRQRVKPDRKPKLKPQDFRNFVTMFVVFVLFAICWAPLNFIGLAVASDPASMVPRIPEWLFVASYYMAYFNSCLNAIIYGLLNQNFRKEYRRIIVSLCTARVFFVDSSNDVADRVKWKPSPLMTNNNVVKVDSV
Description: as §1, §2, §3, §4, §5, §6, §7

isolated urethra = assay: Isolated urethra contractile action; parameters: species or system rat; details: test compound at 1 μM; contractile response by 10 μM phenylephrine as 100%; SD female rat urethra; read-out: Isolated urethra contraction (%)
Description: Test Example 2 Isolated Urethra Contractile Action
(1) Evaluation Test on Urethra Contractile Action of Test Compound Using Isolated Urethra
The urethra was isolated from an SD female rat having a body weight of 100 to 500 g. The isolated urethra was incised longitudinally to give a rectangular strip specimen having a width of about 3 mm, which was suspended in the circular muscle direction in 10 mL of a tissue bath filled with a Krebs-Henseleit solution (pH 7.4). The Krebs-Henseleit solution was bubbled with 95% O2 and 5% CO2, and kept at 37° C. The resting tension was set to 0.5 g to record the isometric contraction. After the resting tension was stabilized, contraction was elicited by the addition of 10 μM phenylephrine. After washing and stabilizing, the test compound was added cumulatively to a final concentration of −12 to −5 log M to measure a contractile response. By taking the contractile response by 10 μM phenylephrine as 100%, the ratio of the contractile response in the concentration of the test compound at 1 μM was calculated.
as §7

SMILES: CNC(=O)NCCc1c(C(=O)NC)[nH]c2ccc(OC)cc12 [Ex 8, 5-methoxy-N-methyl-3-{2-[(methylcarbamoyl)amino]ethyl}-1H-indole-2-carboxamide]
- Emax (human MT2 receptor): 119%
- EC50 (human MT2 receptor): 19 nM
- phototoxicity action (3T3): no phototoxicity action
- Kp uu at 0.25 h [1]: 0.03
- Increment value in the urethra pressures (mmHg) (urethral pressure): 6.0 ± 0.4 mmHg
- Emax (human MT1 receptor): 124%
- EC50 (human MT1 receptor): 12 nM

SMILES: CNC(=O)c1[nH]c2cc(F)c(OC)cc2c1CCNC(=O)C(F)F [Ex 15]
- Emax (human MT2 receptor): 103%
- EC50 (human MT2 receptor): 17 nM
- activation at 1 µM (isolated urethra): 261%
- phototoxicity action (3T3): no phototoxicity action
- Kp uu at 0.25 h [1]: 0.07
- Increment value in the urethra pressures (mmHg) (urethral pressure): 8.6 ± 0.9 mmHg
- Emax (human MT1 receptor): 104%
- EC50 (human MT1 receptor): 5.4 nM

SMILES: CNC(=O)c1[nH]c2cc(F)c(OC)cc2c1CCNC(=O)C(F)F [Ex 57, 3-{2-[(difluoroacetyl)amino]ethyl}-6-fluoro-5-methoxy-N-methyl-1H-indole-2-carboxamide]
- melting point: 196 to 200 °C

SMILES: CNC(=O)c1[nH]c2cc(F)c(OC)cc2c1CCNC(C)=O [Ex 56, 3-(2-acetamidoethyl)-6-fluoro-5-methoxy-N-methyl-1H-indole-2-carboxamide]
- melting point: 209 to 212 °C

SMILES: CNC(=O)c1[nH]c2ccc(OC)cc2c1CCNC(C)=O [Ex 1, 3-(2-acetamidoethyl)-5-methoxy-N-methyl-1H-indole-2-carboxamide]
- Emax (human MT2 receptor): 108%
- EC50 (human MT2 receptor): 26 nM
- activation at 1 µM (isolated urethra): 128%
- phototoxicity action (3T3): no phototoxicity action
- Kp uu at 0.25 h [1]: 0.18
- Increment value in the urethra pressures (mmHg) (urethral pressure): 5.1 ± 0.6 mmHg
- Emax (human MT1 receptor): 104%
- EC50 (human MT1 receptor): 12 nM
